The values that follow are results of earlier work, collected in patent US20100310668A1, “PHARMACEUTICAL COMPOSITIONS COMPRISING N-[2-(DIETHYLAMINO)ETHYL]-5-[(5-FLUORO-1,2-DIHYDRO-2-OXO-3H-INDOL-3-YLIDENE)METHYL]-2,4-DIMETHYL-1H-PYRROLE-3-CARBOXAMIDE” (ratiopharm GmbH, priority 2008, published 2010).

For the data set the following is noted: solid (crystalline) form obtained by known manufacturing processes.

Regarding `CCN(CC)CCNC(=O)c1c(C)[nH]c(/C=C2\C(=O)Nc3ccc(F)cc32)c1C` [compound I, N-[2-(diethylamino)ethyl]-5-[(5-fluoro-1,2-dihydro-2-oxo-3H-indol-3-ylidene)methyl]-2,4-dimethyl-1H-pyrrole-3-carboxamide], the solubility in water result is “poor”.
